Measurements: patent US20250380696A1, “METHOD FOR CONTROLLING UNDESIRED PLANTS AND PROMOTING GROWTH OF USEFUL PLANTS” (ISHIHARA SANGYO KAISHA, LTD., priority 2022, published 2025)

Key:
Format in all cases: in vivo
[1] = system: forage corn (cultivar: SNOW DENT OTOHA); experiment: (17) Plant growth promotion effect test (corn), Italian ryegrass sown; conditions: 20th day after the sowing, above-ground part
Text: Upland soil was put in a 1/1,000,000 hectare pot, and seeds of Italian ryegrass (Lolium multiflorum) were sown. When the Italian ryegrass reached 2.5 to 3.0 leaf stage, a water-based suspension containing tiafenacil as the active ingredient, prepared by a conventional method for preparing a water-based suspension, and an emulsifiable concentrate containing S-metolachlor as the active ingredient (tradename: Dual Gold, manufactured by Syngenta) or a wettable powder containing metribuzin as the active ingredient (tradename: SENCOR wettable powder, manufactured by Bayer Crop Science) were diluted with water (in an amount corresponding to 200 liter per hectare) containing 0.5 vol % of an agricultural spreader (tradename: Destiny HC, manufactured by Winfield Solutions, LLC.) and sprayed by a small spray gun (model: W-101-132G, manufactured by ANEST IWATA Corporation). Seeds of forage corn (cultivar: SNOW DENT OTOHA, manufactured by SNOW BRAND SEED Co., Ltd.) were sown in the pot after spraying. On the 20th day after the sowing, the above-ground part of the forage corn was reaped, and its weight was measured to obtain the raw weight.

[2] = system: Italian ryegrass (Lolium multiflorum); experiment: (9) Herbicidal effect test, pot, spray at 3.2 to 4.0 leaf stage; conditions: 6th day after spraying
Text: (§1) [formula] • X: growth inhibition rate when treated with α (g/ha) of compound A, • Y: growth inhibition rate when treated with β (g/ha) of compound B, • E: growth inhibition rate expected when treated with α (g/ha) of compound A and β (g/ha) of compound B (expected value).
Upland soil was put in a 1/1,000,000 hectare pot, and seeds of Italian ryegrass (Lolium multiflorum) were sown. When Italian ryegrass reached 3.2 to 4.0 leaf stage, a water-based suspension containing tiafenacil as the active ingredient, prepared by a conventional method for preparing a water-based suspension, and a wettable powder containing tri-allate as the active ingredient, prepared by a conventional method for preparing a wettable powder, an emulsifiable concentrate containing pethoxamid as the active ingredient (tradename: Successor 600, manufactured by Stähler Suisse SA) or an emulsifiable concentrate containing dimethenamid-P as the active ingredient (tradename: Fieldstar P emulsifiable concentrate, manufactured by BASF) were diluted with water (in an amount corresponding to 200 liter per hectare) containing 0.5 vol % of an agricultural spreader (tradename: Destiny HC, manufactured by Winfield Solutions, LLC.) and sprayed by a small spray gun (model: W-101-132G, manufactured by ANEST IWATA Corporation). On the 6th day after spraying, the state of growth of the Italian ryegrass was visually observed, and the growth inhibition rate (%) was obtained in accordance with the evaluation standards described in the above (1) herbicidal effect test, and the results are shown in Table 9. Further, the expected value of the growth inhibition rate (%) was calculated in accordance with the Colby's formula described in the above (1) herbicidal effect test, and the results are also shown in Table 9.

[3] = system: horseweed (Conyza canadensis); experiment: (15) Herbicidal effect test, pot, spray at diameter of 13 to 19 cm; conditions: 3rd day after spraying
Text: as §1
Upland soil was put in a 1/1,000,000 hectare pot, and seeds of horseweed (Conyza canadensis) were sown. When the horseweed reached a diameter of 13 to 19 cm, a water-based suspension containing tiafenacil as the active ingredient, prepared by a conventional method for preparing a water-based suspension, and a wettable powder containing tri-allate as the active ingredient, prepared by a conventional method for preparing a wettable powder, an emulsifiable concentrate containing pethoxamid as the active ingredient (tradename: Successor 600, manufactured by Stähler Suisse SA) or an emulsifiable concentrate containing dimethenamid-P as the active ingredient (tradename: Fieldstar P emulsifiable concentrate, manufactured by BASF) were diluted with water (in an amount corresponding to 200 liter per hectare) containing 0.5 vol % of an agricultural spreader (tradename: Destiny HC, manufactured by Winfield Solutions, LLC.) and sprayed by a small spray gun (model: W-101-132G, manufactured by ANEST IWATA Corporation). On the 3rd day after spraying, the state of growth of the horseweed was visually observed, and the growth inhibition rate (%) was obtained in accordance with the evaluation standards described in the above (1) herbicidal effect test, and the results are shown in Table 15. Further, the expected value of the growth inhibition rate (%) was calculated in accordance with the Colby's formula described in the above (1) herbicidal effect test, and the results are also shown in Table 15.

[4] = system: forage corn (cultivar: SNOW DENT OTOHA); experiment: (19) Plant growth promotion effect test (corn), Italian ryegrass sown; conditions: 21st day after the sowing, above-ground part
Text: Upland soil was put in a 1/1,000,000 hectare pot, and seeds of Italian ryegrass (Lolium multiflorum) were sown. When the Italian ryegrass reached 3.2 to 3.7 leaf stage, a water-based suspension containing tiafenacil as the active ingredient, prepared by a conventional method for preparing a water-based suspension, and a wettable powder containing tri-allate as the active ingredient, prepared by a conventional method for preparing a wettable powder or an emulsifiable concentrate containing pethoxamid as the active ingredient (tradename: Successor 600, manufactured by Stähler Suisse SA) were diluted with water (in an amount corresponding to 200 liter per hectare) containing 0.5 vol % of an agricultural spreader (tradename: Destiny HC, manufactured by Winfield Solutions, LLC.) and sprayed by a small spray gun (model: W-101-132G, manufactured by ANEST IWATA Corporation). Seeds of forage corn (cultivar: SNOW DENT OTOHA, manufactured by SNOW BRAND SEED Co., Ltd.) were sown in the pot after spraying. On the 21st day after the sowing, the above-ground part of the forage corn was reaped, and its weight was measured to obtain the raw weight.

CCc1cccc(C)c1N(C(=O)CCl)[C@@H](C)COC [S-metolachlor]
Raw weight (g) of forage corn ([1]; Dose 750 g/ha): 5.1 g

COC[C@H](C)N(C(=O)CCl)c1c(C)csc1C [dimethenamid-P]
Growth inhibition rate (%) Measured value ([2]; Dose 500 g/ha): 33% | Growth inhibition rate (%) Measured value ([2]; Dose 625 g/ha): 40% | Growth inhibition rate (%) Measured value ([3]; Dose 60 g/ha): 0% | Growth inhibition rate (%) Measured value ([3]; Dose 375 g/ha): 0% | Growth inhibition rate (%) Measured value ([3]; Dose 750 g/ha): 0%

CSc1nnc(C(C)(C)C)c(=O)n1N [metribuzin]
Raw weight (g) of forage corn ([1]; Dose 18.75 g/ha): 6.2 g

CCOCCN(C(=O)CCl)C(=C(C)C)c1ccccc1 [pethoxamid]
Raw weight (g) of forage corn ([4]; Dose 93.8 g/ha): 3.4 g | Raw weight (g) of forage corn ([4]; Dose 375 g/ha): 2.2 g | Raw weight (g) of forage corn ([4]; Dose 750 g/ha): 3.6 g | Growth inhibition rate (%) Measured value ([2]; Dose 312.5 g/ha): 5% | Growth inhibition rate (%) Measured value ([2]; Dose 437.5 g/ha): 3% | Growth inhibition rate (%) Measured value ([2]; Dose 625 g/ha): 8% | Growth inhibition rate (%) Measured value ([3]; Dose 93.8 g/ha): 0% | Growth inhibition rate (%) Measured value ([3]; Dose 375 g/ha): 0% | Growth inhibition rate (%) Measured value ([3]; Dose 750 g/ha): 0%

COC(=O)CCNC(=O)C(C)Sc1cc(-n2c(=O)cc(C(F)(F)F)n(C)c2=O)c(F)cc1Cl (stereo not drawn) [tiafenacil]
Raw weight (g) of forage corn ([1]; Dose 12.5 g/ha): 8.5 g | Raw weight (g) of forage corn ([4]; Dose 6.25 g/ha): 3.9 g | Growth inhibition rate (%) Measured value ([2]; Dose 6.25 g/ha): 30% | Growth inhibition rate (%) Measured value ([3]; Dose 6.25 g/ha): 17%

CC(C)N(C(=O)SCC(Cl)=C(Cl)Cl)C(C)C [tri-allate]
Raw weight (g) of forage corn ([4]; Dose 75 g/ha): 2.6 g | Raw weight (g) of forage corn ([4]; Dose 625 g/ha): 2.2 g | Raw weight (g) of forage corn ([4]; Dose 1250 g/ha): 2.5 g | inhibition at 937.5 g/ha ([2]; Lolium multiflorum, Dose 937.5 g/ha, read-out: Growth inhibition rate (%) Measured value): 3% | inhibition at 75 g/ha ([3]; Erigeron canadensis, Dose 75 g/ha, read-out: Growth inhibition rate (%) Measured value): 0% | inhibition at 625 g/ha ([3]; Erigeron canadensis, Dose 625 g/ha, read-out: Growth inhibition rate (%) Measured value): 5% | inhibition at 1250 g/ha ([3]; Erigeron canadensis, Dose 1250 g/ha, read-out: Growth inhibition rate (%) Measured value): 3%
